Reference: patent publication US9487510B2, “Substituted heterocyclic acetamides as kappa opioid receptor (KOR) agonists” (Dr. Reddy's Laboratories Ltd., priority 2012, dated 2016)

How the values were obtained:
human KOR receptor = human KOR receptor (Homo sapiens, UniProt P41145); test: IP-One HTRF assay, potency of KOR agonists, dose-response in transiently transfected COS-7 cells; assay type: cell-based
Sequence of human KOR receptor (P41145 whole entry): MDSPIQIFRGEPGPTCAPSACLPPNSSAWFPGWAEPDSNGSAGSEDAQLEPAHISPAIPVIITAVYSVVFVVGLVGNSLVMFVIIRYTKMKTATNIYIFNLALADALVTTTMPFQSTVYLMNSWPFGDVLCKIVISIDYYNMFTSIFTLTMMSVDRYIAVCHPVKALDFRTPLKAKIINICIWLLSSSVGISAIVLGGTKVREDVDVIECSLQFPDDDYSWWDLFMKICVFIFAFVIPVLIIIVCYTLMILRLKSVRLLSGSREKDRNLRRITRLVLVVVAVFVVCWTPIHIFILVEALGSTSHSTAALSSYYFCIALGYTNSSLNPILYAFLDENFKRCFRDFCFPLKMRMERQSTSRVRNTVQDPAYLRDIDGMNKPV

O=C(Cc1ccc2ccc(=O)[nH]c2c1)N[C@H](CN1CC[C@H](O)C1)c1ccccc1
melting point: 174 to 176 °C

O=C1Cc2ccc(CC(=O)N[C@H](CN3CC[C@H](O)C3)c3ccccc3)cc2N1
melting point: 207 to 209 °C

Cn1c(=O)oc2ccc(CC(=O)N[C@H](CN3CCC(O)C3)c3ccccc3)cc21 (stereo in doubt) [Example 45, N-((S)-2-((S)-3-hydroxypyrrolidin-1-yl)-1-phenylethyl)-2-(3-methyl-2-oxo-2,3-dihydrobenzo[d]oxazol-5-yl)acetamide]
melting point: 105 to 106 °C | EC50 (human KOR receptor): ≤ 50 nM

O=C(Cc1ccc2[nH]c(=O)ccc2c1)N[C@H](CN1CCC(O)C1)c1ccccc1 (stereo in doubt) [Example 51, N-((S)-2-((R)-3-hydroxypyrrolidin-1-yl)-1-phenylethyl)-2-(2-oxo-1,2-dihydroquinolin-6-yl)acetamide]
melting point: 196 to 198 °C | EC50 (human KOR receptor): 101 to 1000 nM

CN(C(=O)Cc1ccc2oc(=O)[nH]c2c1)[C@H](CN1CCC(O)C1)c1cccc(OCC(=O)OC(C)(C)C)c1 (stereo in doubt) [Example 77, Tert-butyl 2-(3-((S)-2-((R)-3-hydroxypyrrolidin-1-yl)-1-(N-methyl-2-(2-oxo-2,3-dihydrobenzo[d]oxazol-5-yl)acetamido)ethyl)phenoxy)acetate]
melting point: 124 to 125 °C | EC50 (human KOR receptor): ≤ 50 nM

CN(C(=O)Cc1ccc2oc(=O)[nH]c2c1)C(CN1CCCC1)c1cccc(OCC(=O)O)c1 (stereo in doubt) [Example 90, (R)-2-(3-(1-(N-methyl-2-(2-oxo-2,3-dihydrobenzo[d]oxazol-5-yl)acetamido)-2-(pyrrolidin-1-yl)ethyl)phenoxy)acetic acid]
melting point: 227 to 229 °C | EC50 (human KOR receptor): 51 to 100 nM

CN(C(=O)Cc1ccc2oc(=O)[nH]c2c1)[C@H](CN1CCC(O)C1)c1cccc(OCC(=O)O)c1.Cl (stereo in doubt) [Example 96, 2-(3-((S)-2-((R)-3-hydroxypyrrolidin-1-yl)-1-(N-methyl-2-(2-oxo-2,3-dihydrobenzo[d]oxazol-5-yl)acetamido)ethyl)phenoxy)acetic acid]
melting point: 95 to 96 °C | EC50 (human KOR receptor): ≤ 50 nM

CN(C(=O)Cc1ccc2oc(=O)[nH]c2c1)[C@H](CN1CCC(O)C1)c1cccc(-c2nn[nH]n2)c1 (stereo in doubt) [Example 99, N-((S)-1-(3-(2H-tetrazol-5-yl)phenyl)-2-((S)-3-hydroxypyrrolidin-1-yl)ethyl)-N-methyl-2-(2-oxo-2,3-dihydrobenzo[d]oxazol-5-yl)acetamide]
melting point: 228 to 230 °C | EC50 (human KOR receptor): ≤ 50 nM

CCN(CC)C(=O)c1cccc([C@@H](CN2CC[C@H](O)C2)N(C)C(=O)Cc2ccc3c(c2)NS(=O)(=O)C3)c1 [Example 208, 3-((S)-1-(2-(2,2-dioxido-1,3-dihydrobenzo[c]isothiazol-6-yl)-N-methylacetamido)-2-((S)-3-hydroxypyrrolidin-1-yl)ethyl)-N,N-diethylbenzamide]
EC50 (human KOR receptor): ≤ 50 nM

CCN(CC)C(=O)c1cccc([C@@H](CN2CC[C@H](O)C2)N(C)C(=O)Cc2ccc3ncc(=O)[nH]c3c2)c1 [Example 209, N,N-diethyl-3-((S)-2-((S)-3-hydroxypyrrolidin-1-yl)-1-(N-methyl-2-(3-oxo-3,4-dihydroquinoxalin-6-yl)acetamido)ethyl)benzamide 2,2,2-trifluoroacetate]
EC50 (human KOR receptor): ≤ 50 nM

CN(C)C(=O)c1cccc([C@@H](CN2CC[C@H](O)C2)N(C)C(=O)Cc2ccc3c(c2)NS(=O)(=O)C3)c1 [Example 210, 3-((S)-1-(2-(2,2-dioxido-1,3-dihydrobenzo[c]isothiazol-6-yl)-N-methylacetamido)-2-((S)-3-hydroxypyrrolidin-1-yl)ethyl)-N,N-dimethylbenzamide]
EC50 (human KOR receptor): ≤ 50 nM

CN(C)C(=O)c1cccc([C@@H](CN2CC[C@H](O)C2)N(C)C(=O)Cc2ccc3ncc(=O)[nH]c3c2)c1 [Example 211, 3-((S)-2-((S)-3-hydroxypyrrolidin-1-yl)-1-(N-methyl-2-(3-oxo-3,4-dihydroquinoxalin-6-yl)acetamido)ethyl)-N,N-dimethylbenzamide]
EC50 (human KOR receptor): ≤ 50 nM

CN(C(=O)Cc1ccc2c(c1)NC(=O)CS2(=O)=O)[C@H](CN1CC[C@H](O)C1)c1cccc(-c2ncon2)c1 [Example 212, N-((S)-1-(3-(1,2,4-oxadiazol-3-yl)phenyl)-2-((S)-3-hydroxypyrrolidin-1-yl)ethyl)-2-(1,1-dioxido-3-oxo-3,4-dihydro-2H-benzo[b][1,4]thiazin-6-yl)-N-methylacetamide2,2,2-trifluoroacetate]
EC50 (human KOR receptor): ≤ 50 nM

CN(C(=O)Cc1ccc2c(c1)NC(=O)C2)[C@H](CN1CC[C@H](O)C1)c1cccc(-c2nccn2C)c1 [Example 213, N-((S)-2-((S)-3-hydroxypyrrolidin-1-yl)-1-(3-(1-methyl-1H-imidazol-2-yl)phenyl)ethyl)-N-methyl-2-(2-oxoindolin-6-yl)acetamide]
EC50 (human KOR receptor): ≤ 50 nM

CCc1nc(-c2cccc([C@@H](CN3CC[C@H](O)C3)N(C)C(=O)Cc3ccc4c(c3)NC(=O)C4)c2)no1 [Example 214, N-((S)-1-(3-(5-ethyl-1,2,4-oxadiazol-3-yl)phenyl)-2-((S)-3-hydroxypyrrolidin-1-yl)ethyl)-N-methyl-2-(2-oxoindolin-6-yl)acetamide]
EC50 (human KOR receptor): ≤ 50 nM

Cc1cnc(-c2cccc([C@@H](CN3CC[C@H](O)C3)N(C)C(=O)Cc3ccc4c(c3)NC(=O)C4)c2)s1 [Example 215, N-((S)-2-((S)-3-hydroxypyrrolidin-1-yl)-1-(3-(5-methylthiazol-2-yl)phenyl)ethyl)-N-methyl-2-(2-oxoindolin-6-yl)acetamide]
EC50 (human KOR receptor): ≤ 50 nM

CN(C(=O)Cc1ccc2c(c1)NC(=O)C2)[C@H](CN1CC[C@H](O)C1)c1cccc(-c2cncs2)c1 [Example 216, N-((S)-2-((S)-3-hydroxypyrrolidin-1-yl)-1-(3-(thiazol-5-yl)phenyl)ethyl)-N-methyl-2-(2-oxoindolin-6-yl)acetamide]
EC50 (human KOR receptor): ≤ 50 nM

CN(C(=O)Cc1ccc2c(c1)NC(=O)C2)[C@H](CN1CC[C@H](O)C1)c1cccc(-c2cscn2)c1 [Example 217, N-((S)-2-((S)-3-hydroxypyrrolidin-1-yl)-1-(3-(thiazol-4-yl)phenyl)ethyl)-N-methyl-2-(2-oxoindolin-6-yl)acetamide]
EC50 (human KOR receptor): ≤ 50 nM

Cc1csc(-c2cccc([C@@H](CN3CC[C@H](O)C3)N(C)C(=O)Cc3ccc4c(c3)NC(=O)C4)c2)n1 [Example 218, N-((S)-2-((S)-3-hydroxypyrrolidin-1-yl)-1-(3-(4-methylthiazol-2-yl)phenyl)ethyl)-N-methyl-2-(2-oxoindolin-6-yl)acetamide]
EC50 (human KOR receptor): ≤ 50 nM

Cc1ncc(-c2cccc([C@@H](CN3CC[C@H](O)C3)N(C)C(=O)Cc3ccc4c(c3)NC(=O)C4)c2)s1 [Example 219, N-((S)-2-((S)-3-hydroxypyrrolidin-1-yl)-1-(3-(2-methylthiazol-5-yl)phenyl)ethyl)-N-methyl-2-(2-oxoindolin-6-yl)acetamide]
EC50 (human KOR receptor): ≤ 50 nM

Cc1nc(-c2cccc([C@@H](CN3CC[C@H](O)C3)N(C)C(=O)Cc3ccc4c(c3)NC(=O)C4)c2)cs1 [Example 220, N-((S)-2-((S)-3-hydroxypyrrolidin-1-yl)-1-(3-(2-methylthiazol-4-yl)phenyl)ethyl)-N-methyl-2-(2-oxoindolin-6-yl)acetamide]
EC50 (human KOR receptor): ≤ 50 nM

Cc1nnc(-c2cccc([C@@H](CN3CC[C@H](O)C3)N(C)C(=O)Cc3ccc4c(c3)NC(=O)C4)c2)s1 [Example 221, N-((S)-2-((S)-3-hydroxypyrrolidin-1-yl)-1-(3-(5-methyl-1,3,4-thiadiazol-2-yl)phenyl)ethyl)-N-methyl-2-(2-oxoindolin-6-yl)acetamide]
EC50 (human KOR receptor): ≤ 50 nM

CN(C(=O)Cc1ccc2c(c1)NC(=O)C2)[C@H](CN1CC[C@H](O)C1)c1cccc(-c2cncn2C)c1 [Example 222, N-((S)-2-((S)-3-hydroxypyrrolidin-1-yl)-1-(3-(1-methyl-1H-imidazol-5-yl)phenyl)ethyl)-N-methyl-2-(2-oxoindolin-6-yl)acetamide]
EC50 (human KOR receptor): ≤ 50 nM

CN(C(=O)Cc1ccc2c(c1)NC(=O)C2)[C@H](CN1CC[C@H](O)C1)c1cccc(-c2nnco2)c1 [Example 223, N-((S)-1-(3-(1,3,4-oxadiazol-2-yl)phenyl)-2-((S)-3-hydroxypyrrolidin-1-yl)ethyl)-N-methyl-2-(2-oxoindolin-6-yl)acetamide]
EC50 (human KOR receptor): ≤ 50 nM

Cc1nnc(-c2cccc([C@@H](CN3CC[C@H](O)C3)N(C)C(=O)Cc3ccc4c(c3)NC(=O)C4)c2)o1 [Example 224, N-((S)-2-((S)-3-hydroxypyrrolidin-1-yl)-1-(3-(5-methyl-1,3,4-oxadiazol-2-yl)phenyl)ethyl)-N-methyl-2-(2-oxoindolin-6-yl)acetamide]
EC50 (human KOR receptor): ≤ 50 nM

CN(C(=O)Cc1ccc2c(c1)NC(=O)C2)[C@H](CN1CC[C@H](O)C1)c1cccc(-c2cn(C)cn2)c1 [Example 225, N-((S)-2-((S)-3-hydroxypyrrolidin-1-yl)-1-(3-(1-methyl-1H-imidazol-4-yl)phenyl)ethyl)-N-methyl-2-(2-oxoindolin-6-yl)acetamide]
EC50 (human KOR receptor): ≤ 50 nM

CN(C(=O)Cc1ccc2c(c1)NC(=O)C2)[C@H](CN1CC[C@H](O)C1)c1cccc(-c2nccn2CC2CC2)c1 [Example 226, N-((S)-1-(3-(1-(cyclopropylmethyl)-1H-imidazol-2-yl)phenyl)-2-((S)-3-hydroxypyrrolidin-1-yl)ethyl)-N-methyl-2-(2-oxoindolin-6-yl)acetamide]
EC50 (human KOR receptor): ≤ 50 nM

Cc1noc(-c2cccc([C@@H](CN3CC[C@H](O)C3)N(C)C(=O)Cc3ccc4c(c3)NC(=O)C4)c2)n1 [Example 227, N-((S)-2-((S)-3-hydroxypyrrolidin-1-yl)-1-(3-(3-methyl-1,2,4-oxadiazol-5-yl)phenyl)ethyl)-N-methyl-2-(2-oxoindolin-6-yl)acetamide]
EC50 (human KOR receptor): ≤ 50 nM

CN(C(=O)Cc1ccc2sc(=O)[nH]c2c1)[C@H](CN1CC[C@H](O)C1)c1cccc(C(=O)NCC(F)(F)F)c1 [Example 228, 3-((S)-2-((S)-3-hydroxypyrrolidin-1-yl)-1-(N-methyl-2-(2-oxo-2,3-dihydrobenzo[d]thiazol-5-yl)acetamido)ethyl)-N-(2,2,2-trifluoroethyl)benzamide]
EC50 (human KOR receptor): ≤ 50 nM
